The source of these data is ChEMBL document CHEMBL1201862, “PubChem BioAssay data set” (2004).

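The compound was tested at five concentrations on cells cultured in 96-well plates, with a 48-hour exposure period. At the GI50, growth is halved.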 Activity calls are given as the source filed them. Rule as the data show it: active = GI50 up to about 1.1 µM and inactive = higher. Bounds are passed on as bounds.

Test systems include SK-OV-3; KM12; K562; UACC-62; NCI/ADR-RES; OVCAR-8; SF-295; COLO 205; DU-145; LOX IMVI; HOP-62; RPMI-8226; OVCAR-5; BT-549; 786-0; A549; NCI-H226; SW-620; HCC 2998.
Common to all, as to experiment: inhibition of tumour cell growth, NCI panel, 48 h

With `N#CCN(CC#N)C1CC=CCC1N(CC#N)CC#N` (centres undefined), the GI50 in the assay with SK-OV-3, in the assay with KM12, with K562, in the assay with UACC-62, with NCI/ADR-RES and with OVCAR-8 was > 100 µM (inactive) throughout. Also, the GI50 with SF-295, with COLO 205, in the assay with DU-145, in the assay with LOX IMVI, in the assay with HOP-62 and in the assay with RPMI-8226 was > 100 µM (inactive) in each case. Also, the GI50 in the assay with OVCAR-5, in the assay with BT-549, in the assay on 786-0, in the assay on A549, in the assay with NCI-H226 and in the assay on SW-620 was > 100 µM (inactive) in each case.
`C=CCSc1nc2c(N)ncnc2n1C1OC(CO)C(O)C1O` (centres undefined): the GI50 in the assay with SK-OV-3 was > 100 µM (inactive); in the assay with KM12 it was 80.2 µM (inactive); with K562 it was > 100 µM (inactive); with UACC-62, > 100 µM (inactive); in the assay on NCI/ADR-RES, > 100 µM (inactive); in the assay on OVCAR-8 it was > 100 µM (inactive). Moreover, the GI50 in the assay with SF-295, in the assay on COLO 205, with DU-145, in the assay on LOX IMVI, in the assay on HOP-62 and in the assay with RPMI-8226 was > 100 µM (inactive) each time. In addition, the GI50 in the assay with OVCAR-5, in the assay with BT-549, with 786-0, with A549, in the assay on NCI-H226 and in the assay on SW-620 was > 100 µM (inactive) in each case.
On to `O=C1Nc2ccccc2S/C1=C\c1ccc(C(F)(F)F)cc1`, for which the GI50 with SK-OV-3, in the assay on KM12, with K562, with UACC-62, in the assay on NCI/ADR-RES and in the assay with OVCAR-8 was > 100 µM (inactive) each time. The GI50 with SF-295, in the assay on COLO 205, in the assay with DU-145, in the assay on LOX IMVI, in the assay on HOP-62 and with RPMI-8226 was > 100 µM (inactive) in each case. For the same compound, the GI50 in the assay with OVCAR-5, in the assay with BT-549, in the assay on 786-0, in the assay on A549, in the assay with NCI-H226 and in the assay on SW-620 was > 100 µM (inactive) each time.
`Oc1c(/N=N\c2ccccc2)c2cccc3ccc4cccc1c4c32`: the GI50 with SK-OV-3 was > 100 µM (inactive); in the assay on KM12, > 100 µM (inactive); with K562, > 100 µM (inactive); in the assay on UACC-62 it was > 100 µM (inactive); in the assay with NCI/ADR-RES it was > 100 µM (inactive); in the assay with OVCAR-8 it was 40.2 µM (inactive). In addition, the GI50 is 81.7 µM (inactive) in the assay on SF-295; > 100 µM (inactive) in the assay on COLO 205; > 100 µM (inactive) with DU-145; > 100 µM (inactive) with LOX IMVI; 29.6 µM (inactive) in the assay with HOP-62; > 100 µM (inactive) with RPMI-8226. Moreover, the GI50 with OVCAR-5 was > 100 µM (inactive); with BT-549, > 100 µM (inactive); in the assay with 786-0 it was 43.7 µM (inactive); in the assay with A549, > 100 µM (inactive); with NCI-H226, > 100 µM (inactive); with SW-620 it was > 100 µM (inactive).
`Cc1nc(-c2cc3cc([N+](=O)[O-])ccc3oc2=O)cs1`: the GI50 in the assay with SK-OV-3 was > 100 µM (inactive); in the assay on KM12 it was > 100 µM (inactive); in the assay with K562 it was 71.8 µM (inactive); in the assay on UACC-62, > 100 µM (inactive); with SF-295, > 100 µM (inactive); in the assay on COLO 205, > 100 µM (inactive). For the same compound, the GI50 in the assay on DU-145, with LOX IMVI, with HOP-62, with RPMI-8226, in the assay with OVCAR-5 and in the assay with BT-549 was > 100 µM (inactive) in each case. Moreover, the GI50 with 786-0, with HCC 2998, with A549, in the assay on NCI-H226 and in the assay on SW-620 was > 100 µM (inactive) throughout.
As for `O=C1C=CC(=O)N1n1c(-c2ccccc2)n[nH]c1=O`, the GI50 with SK-OV-3, with K562, in the assay with UACC-62, in the assay on NCI/ADR-RES, with OVCAR-8 and in the assay with SF-295 was > 100 µM (inactive) in each case. Besides, the GI50 in the assay with COLO 205, in the assay on DU-145, in the assay with HOP-62, in the assay with OVCAR-5, in the assay on BT-549 and with 786-0 was > 100 µM (inactive) each time. Also, the GI50 in the assay with HCC 2998, in the assay on A549 and in the assay with NCI-H226 was > 100 µM (inactive) throughout.
For `c1ccc2cc(NCNc3ccc4ccccc4c3)ccc2c1`, the GI50 in the assay on SK-OV-3 was 33.6 µM (inactive); with KM12, 13.6 µM (inactive); in the assay on K562, 0.951 µM (active); in the assay with UACC-62, 14.7 µM (inactive); with NCI/ADR-RES, 21.7 µM (inactive); in the assay with OVCAR-8, 17.5 µM (inactive). Besides, the GI50 in the assay with SF-295 was 15.2 µM (inactive); with COLO 205 it was 18.8 µM (inactive); with DU-145 it was 14.4 µM (inactive); in the assay on LOX IMVI, 10.8 µM (inactive); in the assay on HOP-62 it was 19.5 µM (inactive); in the assay with RPMI-8226 it was 6.1 µM (inactive). Also, the GI50 is 21.3 µM (inactive) with OVCAR-5; 24.9 µM (inactive) in the assay on BT-549; 17.3 µM (inactive) with 786-0; 18.3 µM (inactive) in the assay on A549; 17.2 µM (inactive) in the assay with NCI-H226; 34.2 µM (inactive) with SW-620.
In the case of `CCCCCCNC(=O)c1cnc(Cl)cn1`, the GI50 with SK-OV-3 is 22.9 µM (inactive); with KM12 it was 15.9 µM (inactive); with K562, 13 µM (inactive); with UACC-62, 17.2 µM (inactive); in the assay with NCI/ADR-RES it was 15.6 µM (inactive); with OVCAR-8 it was 12.4 µM (inactive). Further, the GI50 in the assay with SF-295 is 18.1 µM (inactive); in the assay on COLO 205 it was 18.4 µM (inactive); in the assay on DU-145, 16.1 µM (inactive); in the assay with LOX IMVI, 14.6 µM (inactive); in the assay with HOP-62 it was 16.1 µM (inactive); in the assay with RPMI-8226, 29 µM (inactive). The GI50 in the assay on OVCAR-5 was 17.3 µM (inactive); with BT-549, 26.2 µM (inactive); with 786-0, 26.1 µM (inactive); in the assay with A549, 13.8 µM (inactive); with NCI-H226, 10 µM (inactive); with SW-620, 15.1 µM (inactive).
As for `Clc1ccc(C(c2ccc(Cl)cc2)c2cncnc2)cc1`, the GI50 is 16 µM (inactive) with SK-OV-3; 18.3 µM (inactive) with KM12; 21.9 µM (inactive) in the assay on K562; 15.2 µM (inactive) with UACC-62; 18.7 µM (inactive) in the assay with NCI/ADR-RES; 20.3 µM (inactive) with OVCAR-8. Besides, the GI50 in the assay with SF-295 is 17.9 µM (inactive); in the assay on COLO 205, 17.1 µM (inactive); in the assay on DU-145 it was 17.5 µM (inactive); with LOX IMVI, 15.8 µM (inactive); with HOP-62, 17.2 µM (inactive); in the assay with RPMI-8226, 34.4 µM (inactive). Also, the GI50 was 15.6 µM (inactive) in the assay with OVCAR-5, 13.9 µM (inactive) with BT-549, 17.3 µM (inactive) in the assay with 786-0 and 20.5 µM (inactive) with A549.
Consider `CCc1n[nH]c(=O)n1O`, for which the GI50 in the assay on SK-OV-3, in the assay on KM12, in the assay on K562, in the assay on UACC-62, in the assay on NCI/ADR-RES and with OVCAR-8 was > 100 µM (inactive) in each case. For the same compound, the GI50 with SF-295, in the assay with COLO 205, in the assay on DU-145, in the assay on HOP-62, in the assay on BT-549 and in the assay on 786-0 was > 100 µM (inactive) throughout. The GI50 in the assay on A549, in the assay on NCI-H226 and in the assay on SW-620 was > 100 µM (inactive) each time.
With `CNC(=O)c1cc(NC(=O)N(CCC#N)CCN(C(=O)N[C@@H](Cc2ccccc2)C(=O)N[C@@H](CC(C)C)C(=O)NC)c2ccccc2)ccc1OC`, the GI50 in the assay with SK-OV-3 is > 100 µM (inactive); in the assay on KM12 it was > 62.1 µM (inactive); in the assay on UACC-62, 23.2 µM (inactive); in the assay on NCI/ADR-RES it was > 100 µM (inactive); in the assay on OVCAR-8 it was > 91.2 µM (inactive); with SF-295, > 79.3 µM (inactive). Moreover, the GI50 was > 100 µM (inactive) in the assay with COLO 205; > 54.8 µM (inactive) in the assay with DU-145; 49.3 µM (inactive) with LOX IMVI; > 100 µM (inactive) in the assay on HOP-62; 56.8 µM (inactive) in the assay with RPMI-8226; > 100 µM (inactive) in the assay with OVCAR-5. The GI50 with BT-549 is > 69.5 µM (inactive); in the assay on 786-0, > 55.2 µM (inactive); in the assay on A549 it was > 100 µM (inactive); with NCI-H226 it was > 100 µM (inactive); with SW-620, > 100 µM (inactive).
As to `CC(=O)Oc1ccc2c(c1)CC[C@@H]1C2CC[C@]2(C)C(=O)NC(=O)CC12` (some centres undefined), the GI50 in the assay on SK-OV-3, in the assay with KM12, in the assay on K562, in the assay with UACC-62, in the assay with OVCAR-8 and in the assay on SF-295 was > 100 µM (inactive) each time. The GI50 in the assay with COLO 205, in the assay with DU-145, with HOP-62, in the assay on OVCAR-5, with BT-549 and in the assay on 786-0 was > 100 µM (inactive) each time. Moreover, the GI50 in the assay with HCC 2998, in the assay with A549, with NCI-H226 and with SW-620 was > 100 µM (inactive) in each case.
